# From patent US8785600B2, “Anti-GCC antibody molecules and related compositions and methods” (Millennium Pharmaceuticals, Inc., priority 2009, dated 2014)
# Square brackets hold non-standard residues; d marks the D form. Peptide text beside a SMILES is read from it. * marks the point of attachment. Dolaproine = CO[C@@H]([C@@H]1CCCN1)[C@@H](C)C(=O)O; Hexanoyl(6-maleimido) = O=C1C=CC(=O)N1CCCCCC(=O)*; Dil = CC[C@H](C)[C@H](NC)[C@@H](CC(=O)O)OC; X1 = C[C@@H](N*)[C@@H](O)c1ccccc1; NMeV = CN[C@H](C(=O)O)C(C)C
# Experiments:
# 293 GCC#2 tumors = assay: Efficacy study with auristatin conjugates in 293 GCC#2 tumors; type: in vivo, SCID mice; design: TGI (tumor growth inhibition) / TGD (tumor growth delay): unit not given here
# Protocol: 293 GCC#2 tumor-bearing SCID mice were treated with 5F9 conjugates with vc MMAE, vcMMAF or mcMMAF at three doses in comparison with 209 conjugates of these toxins or with free toxins or vehicle control. Doses were administered iv on a q7d×4 schedule. Tumors were harvested at days 3, 7, 10, 13 and 17. […] Table 18 provides a summary of the results (TGI=tumor growth inhibition, T/C=treatment/control, TGD=tumor growth delay, CR/PR=complete response/partial response; p value=measure to judge statistical significance, NS=not significant).
# All three of these ADCs were efficacious in the 293 GCC#2 model on a q7d schedule.
# CT26 hGCC/luc #32 cells = assay: Pilot efficacy study with naked antibody in CT26 hGCC/luc #32 disseminated model; settings: 40 mg/kg
# HT29-GCC#5 tumors = assay: Pilot efficacy studies in HT29-GCC#5 s.c. tumors; type: in vivo, mice; settings: 150 μg/kg on a q3d×5 schedule
# Protocol: Studies were performed to determine efficacious conjugates and dosage regimens in mice bearing HT29-GCC#5 tumors. Mice were dosed with single or multiple doses. These studies determined that there was toxicity at too frequent dosing at higher levels of toxin conjugate (e.g., 150 μg/kg 5F9vcMMAF on a q3d×5 schedule). Another study determined that q14d×5 schedule was too infrequent in this model to allow some toxin conjugates to show significant efficacy vs. controls.
# HT29 GCC#5 cells = type: cell-based, human; settings: HT29 cell model
# 293 GCC#2 cells = type: cell-based, human; settings: 293 cell model (293 GCC#2 vs control cells / 209 ADCs)
# 293-GCC#2 tumors [1] = assay: Efficacy study with 5F9vcMMAF and 5F9-DMx in 293-GCC#2 s.c. tumors; type: in vivo; settings: 293-GCC#2 bearing SCID mice, 75 and 150 ug/kg toxin, q14d schedule
# Protocol: 5F9-SPDB-DM4, 5F9-SMCC-DM1 and 5F9vcMMAF were tested for efficacy in the 293-GCC#2 tumor model at two doses (75 μg/kg and 150 μg/kg toxin), on a q14d×5 schedule. Specifically, this study included vehicle-treated control, Sc209-DM1 (150 μg/kg DM1 eq), Sc209-DM4 (150 μg/kg DM4 eq), Sc209-vcMMAF (150 μg/kg MMAF eq), 5F9-DM1 (150 μg/kg DM1 eq), 5F9-DM1 (75 μg/kg DM1 eq), 5F9-DM4 (150 μg/kg DM4 eg), 5F9-DM4 (75 μg/kg DM4 eq), 5F9-vcMMAF (150 μg/kg MMAF eq), and 5F9-vcMMAF (75 μg/kg MMAF eq). Taconic females mice bearing 293-GCC#2 cells (10 mice per group) were used.
# FIG. 1 depicts tumor growth in 293-GCC#2 bearing SCID mice treated with 5F9vc-MMAF, -DM1, and -DM4 on a q14d schedule. […] Therefore at these doses and schedules, 5F9-SPDB-DM4 had the greatest efficacious differential from its control conjugate.
# 5F9-SPDB-DM4 and 5F9-SMCC-DM1 were tested for efficacy in the 293-GCC#2 tumor model at two doses (75 ug/kg and 150 ug/kg toxin) on a q7d×5 schedule. Specifically, this study included vehicle-treated control, 5F9 alone (15 mg/kg), DM1 (300 μg/kg), DM4 (300 μg/kg), Sc209-DM1 (150 μg/kg DM1 eq), Sc209-DM4 (150 μg/kg DM4 eq), Sc209-vcMMAF (150 μg/kg MMAF eq), 5F9-DM1 (150 μg/kg DM1 eq), 5F9-DM1 (75 μg/kg DM1 eq), 5F9-DM4 (150 μg/kg DM4 eq), and 5F9-DM4 (75 μg/kg DM4 eq). Taconic females mice bearing 293-GCC#2 cells (10 mice per group) were used.
# 293-GCC#2 tumors [2] = assay: PD study: phosphohistone H3 positive tumor cells after single iv dose; type: in vivo, mice; settings: 75 or 150 ug/kg toxin
# Protocol: An alternative tumor model used 293-GCC#2 cells. A PD study for 5F9 ADCs in 293-GCC#2 tumor bearing mice was performed. Mice were dosed with single doses of 5F9vcMMAF at 75 ug/kg or 150 ug/kg and serum was taken at timepoints from 1 hr through 4 days for PD analysis of phosphohistone H3 to test antimitotic effects of the toxin on tumor cells. Phospho-histone H3 was detected by antibody (Upstate Biotechnology, now Millipore, Billerica, Mass.) staining of paraffin embedded sections of tumors.
# Similar studies measured the phosphohistone levels in 293-GCC#2 tumor-bearing mice treated with 5F9vcMMAF, 5F9-SPDB-DM4 and 5F9-SMCC-DM1. Mice were dosed with single doses at 150 ug/kg and serum was taken at timepoints from 1 hr through 21 days for PK analysis of both total antibody and toxin-conjugated antibody. The percentage of phosphohistone H3 positive cells in 293-GCC#2 tumors increased in response to all three ADCS: 5F9vcMMAF, 5F9-SMCC-DM1 and 5F9-SPDB-DM4. Maximal phosphohistone H3 levels were 3- to 5-fold increased over baseline, with peaks at 24 hours post-injection.
# [3] = tested on: PHTX-9c primary human colon tumor xenograft; assay: Antitumor activity in PHTX-9c primary human colon tumor xenograft (Study A and Study B); type: in vivo, CB-17 SCID mice
# Protocol: Female CB-17 SCID mice (eight weeks old) were inoculated subcutaneously (SC) into the flank with PHTX-9c tumor fragments (2 mm×2 mm). Tumor growth was monitored twice per week using vernier calipers and the mean tumor volume was calculated using the formula (0.5×[length×width^2]). When the mean tumor volume reached approximately 150 mm^3 (Study A) or 160 mm^3 (Study B), animals were randomized into treatment groups (n=10/group for Study A and n=9/group for Study B).
# Doses were administered on Days 1, 8, and 15 for the QW schedule and Days 1, 4, 8, 11, 15, and 18 for the BIW schedule. […] The equivalent dose of linker+MMAE is 4% of the 5F9-vcMMAE dose. These calculations are based on a mean 3.9 MMAE molecules per antibody and a free antibody molecular weight of 150 kD. Actual antibody molecular weight will vary slightly due to degree of glycosylation.
# Tumor volume and body weight were measured twice weekly and were continued beyond the treatment period to measure regrowth kinetics, as evidenced by tumor growth delay (TGD). Tumor volume measurements were continued until tumor volume reached 10% of the body weight in a single mouse within a treatment group, at which time the group was terminated. The percentage of tumor growth inhibition (TGI) ([mean tumor volume of the control group−mean tumor volume of a treated group]/mean tumor volume of the control group; a T/C ratio) was determined on Day 20. The T/C ratios across a treatment group were compared to the T/C ratios of the control group using a two-tailed Welch's t-test.
# The differences in the tumor growth trends over time between pairs of treatment groups were assessed using linear mixed effects regression models. These models account for the fact that each animal was measured at multiple time points. A separate model was fit for each comparison, and the areas under the curve (AUC) for each treatment group were calculated using the predicted values from the model. The percent decrease in AUC (dAUC) relative to the reference group was then calculated.
molecule,measurement,setting,value
CC[C@H](C)[C@@H]([C@@H](CC(=O)N1CCC[C@H]1[C@H](OC)[C@@H](C)C(=O)N[C@H](C)[C@@H](O)c1ccccc1)OC)N(C)C(=O)[C@@H](NC(=O)[C@@H](NC)C(C)C)C(C)C [Free MMAE] (H-[NMeV]V[Dil][Dolaproine]-X1),CR/PR (complete response/partial response),293 GCC#2 tumors; 300 μg/kg iv q7d×4,0
same,T/C (treatment/control),293 GCC#2 tumors; 300 μg/kg iv q7d×4,0.64
same,TGD (tumor growth delay),293 GCC#2 tumors; 300 μg/kg iv q7d×4,2
same,TGI (tumor growth inhibition),293 GCC#2 tumors; 300 μg/kg iv q7d×4,35.6
"sc209: human IgG1 monoclonal antibody raised against an unrelated target, with no reactivity to GCC; negative control [reference compound]",T/C compared to 0.9% NaCl group,CT26 hGCC/luc #32 cells,0.64
same,"Lung weight, T test P vs. vehicle",CT26 hGCC/luc #32 cells; end of study,0.4
5F9-vcMMAF: 5F9 anti-GCC antibody molecule conjugated with mc-vc-MMAF,T/C (treatment/control),293 GCC#2 tumors; 37.5 μg/kg iv q7d×4,0.35
same,TGD (tumor growth delay),293 GCC#2 tumors; 37.5 μg/kg iv q7d×4,7.1
same,TGI (tumor growth inhibition),293 GCC#2 tumors; 37.5 μg/kg iv q7d×4,65.2
same,T/C (treatment/control),293 GCC#2 tumors; 75 μg/kg iv q7d×4,0.12
same,TGI (tumor growth inhibition),293 GCC#2 tumors; 75 μg/kg iv q7d×4,88.5
same,T/C (treatment/control),293 GCC#2 tumors; 150 μg/kg iv q7d×4,0.03
same,TGI (tumor growth inhibition),293 GCC#2 tumors; 150 μg/kg iv q7d×4,97
same,Tumor growth inhibition (efficacy),"293 GCC#2 tumors; 293 GCC#2 model, iv, q7d×4 schedule",more potent than 5F9-vcMMAE
same,Toxicity,HT29-GCC#5 tumors,toxicity
same,Target enhanced cell kill,HT29 GCC#5 cells,target enhanced cell kill
same,Target enhanced cell kill,293 GCC#2 cells,target enhanced cell kill
same,Tumor growth (efficacy),293-GCC#2 tumors [1],the most efficacious
same,Percentage of phosphohistone H3 positive cells in 293-GCC#2 tumors,293-GCC#2 tumors [2],increased
5F9-vcMMAE: 5F9 mAb conjugated to MMAE through the vc (Val-Cit) linker; average drug loading about 3.6,T/C (treatment/control),293 GCC#2 tumors; 75 μg/kg iv q7d×4,0.45
same,TGD (tumor growth delay),293 GCC#2 tumors; 75 μg/kg iv q7d×4,4.4
same,TGI (tumor growth inhibition),293 GCC#2 tumors; 75 μg/kg iv q7d×4,54.5
same,T/C (treatment/control),293 GCC#2 tumors; 150 μg/kg iv q7d×4,0.17
same,TGI (tumor growth inhibition),293 GCC#2 tumors; 150 μg/kg iv q7d×4,83.5
same,T/C (treatment/control),293 GCC#2 tumors; 300 μg/kg iv q7d×4,0.03
same,TGI (tumor growth inhibition),293 GCC#2 tumors; 300 μg/kg iv q7d×4,96.9
5F9-SMCC-DM1: 5F9 conjugated to DM1 using SMCC heterobifunctional crosslinker,Tumor growth (efficacy),293-GCC#2 tumors [1],"efficacious, however less so than 5F9-SPDB-DM4 at 150 ug/kg"
same,Percentage of phosphohistone H3 positive cells in 293-GCC#2 tumors,293-GCC#2 tumors [2],increased
CC[C@H](C)[C@@H]([C@@H](CC(=O)N1CCC[C@H]1[C@H](OC)[C@@H](C)C(=O)N[C@@H](Cc1ccccc1)C(=O)O)OC)N(C)C(=O)[C@@H](NC(=O)[C@H](C(C)C)N(C)C(=O)CCCCCN1C(=O)C=CC1=O)C(C)C [Free mcMMAF] ({Hexanoyl(6-maleimido)}-[NMeV]V[Dil][Dolaproine]F-OH),CR/PR (complete response/partial response),293 GCC#2 tumors; 150 μg/kg iv q7d×4,0
same,T/C (treatment/control),293 GCC#2 tumors; 150 μg/kg iv q7d×4,1.03
same,TGD (tumor growth delay),293 GCC#2 tumors; 150 μg/kg iv q7d×4,−1.3
same,TGI (tumor growth inhibition),293 GCC#2 tumors; 150 μg/kg iv q7d×4,−3.4
"CC[C@H](C)[C@@H]([C@@H](CC(=O)N1CCC[C@H]1[C@H](OC)[C@@H](C)C(=O)N[C@H](C)[C@@H](O)c1ccccc1)OC)N(C)C(=O)[C@@H](NC(=O)[C@@H](NC)C(C)C)C(C)C [MMAE, monomethyl auristatin E] (H-[NMeV]V[Dil][Dolaproine]-X1)",TGI,[3]; 0.075 mg/kg IV QW,no tumor growth inhibition
same,TGI,[3]; 0.135 mg/kg IV QW,no tumor growth inhibition
same,TGI,[3]; 0.15 mg/kg IV QW,no tumor growth inhibition
same,TGI,"[3]; Study A, 0.075 mg/kg IV QW × 3 doses, Day 20",5.0 (p > 0.05) %
same,TGI,"[3]; Study A, 0.15 mg/kg IV QW × 3 doses, Day 20",11.1 (p > 0.05) %
same,TGI,"[3]; Study B, 0.135 mg/kg IV QW × 3 doses, determined on Day 20",2.2 (p > 0.05) %
